Data set [1] in a line: Cell permeability flux assay using Caco-2 cells. In kind it is in vitro ADME. The settings on record: human; Caco-2, 2 hours incubation.
The test system of the next data set is NCI-H292. Description: Cytotoxicity MTT assay, NCI-H292. In kind it is cell-based, human. The source says:
(§1) Table 2 below lists the IC50 values of representative working examples from the assay described and the corresponding cytotoxicity data (MTT assay).
For orientation: Tetrazolium assays rely on reduction of a dye to a coloured formazan, in cell work by metabolically active cells.

In a further data set the test system is KPL4. As to the kind of experiment: Cytotoxicity MTT assay, KPL4. It is filed as cell-based.
Source text: as §1

Data set [2] concerns the target motor domain of the human kinesin spindle protein KSP/Eg5 (Homo sapiens (Human), UniProt P52732). Description: Inhibition of the kinesin spindle protein KSP/Eg5 (ATPase, malachite green). In kind it is biochemical. The note with it: 10 nM KSP motor domain, microtubuli, 500 μM ATP, 2 h RT. The procedure:
The motor domain of the human kinesin spindle protein KSP/Eg5 (tebu-bio/Cytoskeleton Inc, No. 027EG01-XL) was incubated in a concentration of 10 nM with microtubuli (bovine or porcine, tebu-bio/Cytoskeleton Inc) stabilized with 50 μg/ml taxol (Sigma No. T7191-5MG) for 5 min at RT in 15 mM PIPES, pH 6.8 (5 mM MgCl2 and 10 mM DTT, Sigma). […] Incubation was at RT for 2 h. ATPase activity was detected by detecting the inorganic phosphate formed using malachite green (Biomol). […] The positive controls used were monastrol (Sigma, M8515-1 mg) and ispinesib (AdooQ Bioscience A10486). The individual data of the dose-activity curve are eight-fold determinations. The IC50 values are means of two independent experiments.

Another data set deals with Caco-2 cells. As to the kind of experiment: Cell permeability flux assay using Caco-2 cells. It is filed as in vitro ADME. Background: Passage across Caco-2 layers is used to estimate intestinal permeability.
Data set [3] has as its system MCF-7: human breast cancer cells, B7H3-positive. As to the kind of experiment: CTG cytotoxicity assay of anti-B7H3 ADCs, MCF-7. It is filed as cell-based. The note with it: MCF7, 72 h incubation, growth inhibition vs day 0.
Method: The cells were cultivated according to the standard method using the growth media listed under C-1. […] The cells were then incubated in an incubator at 37° C., and 5% carbon dioxide. In a parallel plate, the cell vitality was determined at the start of the drug treatment (day 0) using the Cell Titer Glow (CTG) Luminescent Cell Viability Assay (Promega #G7573 and #G7571). To this end, 100 μl of the substance were added per cell batch, the plates were then covered with aluminium foil, shaken on the plate shaker at 180 rpm for 2 minutes, allowed to stand on the laboratory bench for 8 minutes and then measured using a luminometer (Victor X2, Perkin Elmer). The substrate detects the ATP content in the living cells, generating a luminescence signal of which the height is directly proportional to the vitality of the cells. […] From the measured data, the IC^50 of the growth inhibition in comparison to day 0 was calculated using the DRC (dose response curve) analysis spreadsheet with a 4-parameter fit.
In data set [4] the test system is Raji: human Burkitt's lymphoma cells, B7H3-negative. As to the kind of experiment: CTG cytotoxicity assay of anti-B7H3 ADCs, Raji. It is filed as cell-based. The settings on record: 72 h incubation. As for the experimental part: The analysis of the cytotoxic effects of the anti-B7H3 ADCs was carried out with various cell lines:
Raji: human Burkitt's lymphoma cells, DMSZ-ACC-319, standard medium: RPMI 1640; (Biochrom; # FG 1215, with stable glutamine)+10% FCS (Biochrom; # S0415), B7H3-negative.
The cells were cultivated by the standard method as stated by the American Tissue Culture Collection (ATCC) for the cell lines in question.
The cells were cultivated according to the standard method using the growth media listed under C-1. […] In a parallel plate, the cell vitality was determined at the start of the drug treatment (day 0) using the Cell Titer Glow (CTG) Luminescent Cell Viability Assay (Promega #G7573 and #G7571). To this end, 100 μl of the […] were added per cell batch, the plates were then covered with aluminium foil, shaken on the plate shaker at 180 rpm for 2 minutes, allowed to stand on the laboratory bench for 8 minutes and then measured using a luminometer (Victor X2, Perkin Elmer). The substrate detects the ATP content in the living cells, generating a luminescence signal of which the height is directly proportional to the vitality of the cells. […] From the measured data, the IC^50 of the growth inhibition in comparison to day 0 was calculated using the DRC (dose response curve) analysis spreadsheet with a 4-parameter fit. […]

Where [5] appears, read: Homo sapiens, NCI-H292, MTT assay.

The text below walks through data of patent US11071788B2, “Antibody drug conjugates of kinesin spindel protein (KSP) inhibitors with antiB7H3-antibodies” (BAYER PHARMA AKTIENGESELLSCHAFT, priority 2015, dated 2021).

As usually defined, the Papp B→A is the apparent permeability from the basolateral to the apical side of a cell layer. The IC50 is the midpoint of a concentration-inhibition curve. A low value points to greater potency.

motor domain of the human kinesin spindle protein KSP/Eg5, sequence (P52732 18-359): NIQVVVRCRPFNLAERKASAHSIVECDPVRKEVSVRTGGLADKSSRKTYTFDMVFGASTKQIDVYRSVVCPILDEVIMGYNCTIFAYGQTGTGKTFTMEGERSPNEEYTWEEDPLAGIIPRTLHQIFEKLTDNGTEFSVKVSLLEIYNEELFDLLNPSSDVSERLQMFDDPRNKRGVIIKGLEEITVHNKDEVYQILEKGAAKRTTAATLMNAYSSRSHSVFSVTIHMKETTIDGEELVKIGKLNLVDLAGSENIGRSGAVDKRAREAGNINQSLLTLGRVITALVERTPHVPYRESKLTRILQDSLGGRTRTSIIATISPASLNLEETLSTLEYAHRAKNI

With `CC(C)(C)[C@H](c1cc(-c2cc(F)ccc2F)cn1Cc1ccccc1)N(CC[C@H](N)C(=O)NCCNC(=O)CNC(=O)C[C@@H](SC[C@H](N)C(=O)O)C(=O)O)C(=O)CO` (racemic) [Example M26, 4-[(2-{[2-({(2S)-2-Amino-4-[{(1R)-1-[1-benzyl-4-(2,5-difluorophenyl)-1H-pyrrol-2-yl]-2,2-dimethylpropyl}(glycoloyl)amino]butanoyl}amino)ethyl]amino}-2-oxoethyl)amino]-2-{[(2R)-2-amino-2-carboxyethyl]sulfanyl}-4-oxobutanoic acid-trifluoroacetic acid (1:1)], the Papp B→A at 2 h in data set [1] amounted to 1.3 ×10⁻⁶ cm/s. Besides, the IC50 with NCI-H292 (setting [5]) was found to be 63.8 nM.

As to `CC(C)(C)[C@H](c1cc(-c2cc(F)ccc2F)cn1Cc1ccccc1)N(CC[C@H](N)C(=O)NC(CCC(=O)O)C(=O)O)C(=O)CO.O=C(O)C(F)(F)F` (stereo in doubt) [Example M25, N-{(2S)-2-Amino-4-[{(1R)-1-[1-benzyl-4-(2,5-difluorophenyl)-1H-pyrrol-2-yl]-2,2-dimethylpropyl}(glycoloyl)amino]butanoyl}-L-glutamic acid-trifluoroacetic acid (1:1)], the IC50 in the data set with KPL4 (KPL4, MTT assay) is 500 nM; in the data set on NCI-H292 (setting [5]), 500 nM. In data set [1], this molecule yielded a Papp B→A at 2 h of 0.81 ×10⁻⁶ cm/s.

Consider `CC(C)(C)[C@H](c1cc(-c2cc(F)ccc2F)cn1Cc1ccccc1)N(CC[C@H](N)C(=O)NCCOCCNC(=O)CC(SC[C@H](N)C(=O)O)C(=O)O)C(=O)CO` (stereo partly drawn) [Example M5], for which the values for the IC50 (in data set [2]; with KPL4 (MTT assay); in the data set on NCI-H292 (MTT assay)) were 0.457 nM, 222 nM and 79.4 nM, respectively. Also, in the data set on Caco-2 cells (Caco-2, 2 hours incubation), the “Papp (B-A)” value turned out to be 2.03 ×10⁻⁶ cm/s. Also, the Efflux ratio with Caco-2 cells (ratio of Papp (B-A) to Papp (A-B), Caco-2) is listed as 26.5.

Turning to `CC(C)(C)[C@H](c1cc(-c2cc(F)ccc2F)cn1Cc1ccccc1)N(CCCN)C(=O)CO` [M09, N-(3-Aminopropyl)-N-{(1R)-1-[1-benzyl-4-(2,5-difluorophenyl)-1H-pyrrol-2-yl]-2,2-dimethylpropyl}-2-hydroxyacetamide], the IC50 in data set [3] and in data set [4] was 0.03 nM throughout.
